Laboratory results reported in ChEMBL document CHEMBL6087474, “Discovery of an Efficacious RET PROTAC Degrader with Enhanced Antiproliferative Activity against Resistant Cancer Cells Harboring RET Solvent-Front Mutations” (J Med Chem, 2025).
Active and inactive are the calls of the source. The calls are words filed in the database; no cut-off is given here.

What was measured:
BaF3 [1] = assay: PROTAC activity at CRBN/KIF5B-RET (unknown origin) expressed in mouse BaF3 cells assessed as induction of RET degradation at 10 nM measured after 6 hrs by Western blot analysis relative to control; format: cell-based
BaF3 [2] = assay: PROTAC activity at CRBN/KIF5B-RET (unknown origin) expressed in mouse BaF3 cells assessed as induction of RET degradation at 100 nM measured after 6 hrs by Western blot analysis relative to control; format: cell-based
BaF3 [3] = assay: PROTAC activity at CRBN/KIF5B-RET (unknown origin) expressed in mouse BaF3 cells assessed as induction of RET degradation at 1000 nM measured after 6 hrs by Western blot analysis relative to control; format: cell-based
[4] = PROTAC activity at CRBN/KIF5B-RET (unknown origin) expressed in mouse BaF3 cells assessed as induction of RET degradation measured after 6 hrs by Western blot analysis; conditions: Homo sapiens, BaF3, 6 h
BaF3 [5] = assay: PROTAC activity at CRBN/KIF5B-RET (unknown origin) expressed in mouse BaF3 cells assessed as induction of RET degradation by measuring maximal efficacy measured after 6 hrs by Western blot analysis relative to control; format: cell-based; conditions: Homo sapiens
BaF3 [6] = assay: PROTAC activity at CRBN/KIF5B-RET-G810R mutant (unknown origin) expressed in mouse BaF3 cells assessed as induction of RET degradation at 300 nM measured after 6 hrs by Western blot analysis relative to control; format: cell-based; conditions: Homo sapiens
BaF3 [7] = assay: PROTAC activity at CRBN/IKZF1 in mouse BaF3 cells overexpressing KIF5B-RET assessed as induction of […] at 10 to 1000 nM incubated for 6 hrs by Western blot analysis; format: cell-based; conditions: dose 10-1000 nM
BaF3 [8] = assay: Antiproliferative activity against mouse BaF3 cells stably expressing KIF5B-RET-V804M mutant incubated for 72 hrs by CCK-8 assay; format: functional, cell-based; conditions: BaF3, 72 h
BaF3 [9] = assay: Antiproliferative activity against mouse BaF3 cells stably expressing CCDC6-RET incubated for 72 hrs by CCK-8 assay; format: functional, cell-based; conditions: BaF3, 72 h
[10] = Effect on Shc protein level in mouse BaF3 cells stably expressing wildtype KIF5B-RET assessed as fold change at 11.1 nM measured after 6 hrs by Western blot analysis; format: functional
[11] = Effect on Shc protein level in mouse BaF3 cells stably expressing wildtype KIF5B-RET assessed as fold change at 33.3 nM measured after 6 hrs by Western blot analysis; format: functional
[12] = Effect on Shc protein level in mouse BaF3 cells stably expressing wildtype KIF5B-RET assessed as fold change at 300 nM measured after 6 hrs by Western blot analysis; format: functional
[13] = Effect on Shc protein level in mouse BaF3 cells stably expressing KIF5B-RET-V804M mutant assessed as fold change at 33.3 nM measured after 6 hrs by Western blot analysis (reference value: 1); format: functional
[14] = Effect on RET protein level in mouse BaF3 cells stably expressing KIF5B-RET-G810C mutant assessed as fold change at 11.1 nM measured after 6 hrs by Western blot analysis (reference value: 1); format: functional
[15] = Effect on RET protein level in mouse BaF3 cells stably expressing KIF5B-RET-G810C mutant assessed as fold change at 33.3 nM measured after 6 hrs by Western blot analysis (reference value: 1); format: functional
[16] = Effect on RET protein level in mouse BaF3 cells stably expressing KIF5B-RET-G810C mutant assessed as fold change at 300 nM measured after 6 hrs by Western blot analysis (reference value: 1); format: functional
[17] = Effect on RET protein level in mouse BaF3 cells stably expressing KIF5B-RET-G810R mutant assessed as fold change at 11.1 nM measured after 6 hrs by Western blot analysis (reference value: 1); format: functional
[18] = Effect on Shc protein level in mouse BaF3 cells stably expressing KIF5B-RET-G810R mutant assessed as fold change at 100 nM measured after 6 hrs by Western blot analysis (reference value: 1); format: functional
BaF3 [19] = assay: Inhibition of RET (unknown origin) phosphorylation in mouse BaF3 cells stably expressing KIF5B-RET-G810R mutant at 333.3 to 3000 nM measured after 6 hrs by Western blot analysis; format: cell-based; conditions: Homo sapiens, dose 333.3-3000 nM
[20] = Induction of apoptosis in mouse BaF3 cells stably expressing wildtype KIF5B-RET fusion protein assessed as viable cells at 11.1 nM measured after 48 hrs by Annexin V-FITC/7-AAD staining based flow cytometric analysis (reference value: 86.65 %); format: functional; conditions: read-out: Activity
[21] = Induction of apoptosis in mouse BaF3 cells stably expressing wildtype KIF5B-RET fusion protein assessed as necrotic cells at 11.1 nM measured after 48 hrs by Annexin V-FITC/7-AAD staining based flow cytometric analysis (reference value: 2.40 %); format: functional
[22] = Induction of apoptosis in mouse BaF3 cells stably expressing wildtype KIF5B-RET fusion protein assessed as early apoptotic cells at 100 nM measured after 48 hrs by Annexin V-FITC/7-AAD staining based flow cytometric analysis (reference value: 9.92 %); format: functional
[23] = Induction of apoptosis in mouse BaF3 cells stably expressing wildtype KIF5B-RET fusion protein assessed as necrotic cells at 300 nM measured after 48 hrs by Annexin V-FITC/7-AAD staining based flow cytometric analysis (reference value: 2.40 %); format: functional
[24] = Induction of apoptosis in mouse BaF3 cells stably expressing KIF5B-RET-G810C mutant assessed as early apoptotic cells at 33.3 nM measured after 48 hrs by Annexin V-FITC/7-AAD staining based flow cytometric analysis (reference value: 8.57 %); format: functional
[25] = Induction of apoptosis in mouse BaF3 cells stably expressing KIF5B-RET-G810C mutant assessed as early apoptotic cells at 100 nM measured after 48 hrs by Annexin V-FITC/7-AAD staining based flow cytometric analysis (reference value: 8.57 %); format: functional
[26] = Induction of apoptosis in mouse BaF3 cells stably expressing KIF5B-RET-G810C mutant assessed as necrotic cells at 100 nM measured after 48 hrs by Annexin V-FITC/7-AAD staining based flow cytometric analysis (reference value: 2.89 %); format: functional
[27] = AUC in male ICR mouse at 10 mg/kg, ip measured after 24 hrs by LC-MS/MS analysis; format: ADME, organism-based; conditions: in vivo
[28] = Bioavailability in male ICR mouse at 10 mg/kg, ip measured after 24 hrs by LC-MS/MS analysis; format: ADME, organism-based; conditions: in vivo
[29] = Toxicity in male BALB/c mouse model implanted with mouse BaF3 cells stably expressing KIF5B-RET-G810C mutant assessed as body weight loss at 10 to 30 mg/kg, ip administered daily for 14 days; format: organism-based; conditions: in vivo, 336 h, dose 10-30 mg/kg, time 14 day
BaF3 [30] = assay: Antitumor activity against mouse BaF3 cells stably expressing KIF5B-RET-G810C mutant implanted in male BALB/c mouse model assessed as reduction in tumor weight at 30 mg/kg, ip administered daily for 14 days relative to control; format: functional; design: scale not given: the % may be the effect or the level left; conditions: time 14 day

COc1ccc(CN2C3CC2CN(c2ccc(-c4cc(-c5cnn(C6CCN(CCCCCC#Cc7cccc8c7CN(C7CCC(=O)NC7=O)C8=O)CC6)c5)cn5ncc(C#N)c45)cn2)C3)cn1 (stereo not given)
Activity (BaF3 [1]): 60%
Activity (BaF3 [2]): 73%
Activity (BaF3 [3]): 74%
DC50 [4]: 4.7 nM
Emax (BaF3 [5]): 83%
Activity (BaF3 [6]): 43%
Activity (BaF3 [7]): inactive
IC50 (BaF3 [8]): 40 nM
IC50 (BaF3 [9]): 10 nM
fold change (FC) [10]: 1
fold change (FC) [11]: 1
fold change (FC) [12]: 1
fold change (FC) [13]: 1
fold change (FC) [14]: 0.7
fold change (FC) [15]: 0.6
fold change (FC) [16]: 0.3
fold change (FC) [17]: 1
fold change (FC) [18]: 0.9
inhibition (BaF3 [19]): Active
viability at 0.0111 µM [20]: 83.8%
Activity [21]: 3%
Activity [22]: 33.58%
Activity [23]: 0.42%
Activity [24]: 10.15%
Activity [25]: 19.9%
Activity [26]: 2.09%
AUC at 24 h [27]: 680 ng·h/mL
bioavailability [28]: 17.3%
Activity [29]: Non-toxic
Activity (BaF3 [30]): 34.4%
